Experimental findings from ChEMBL document CHEMBL4507319 (2021) are described below.

The target in assay [1] is Atypical kinase COQ8B, mitochondrial (Homo sapiens) (UniProt Q96D53). As to conditions: Compound concentration 1000.0 nM.
Assay [2] deals with Serine/threonine-protein kinase MARK1 (Homo sapiens) (UniProt Q9P0L2). As to conditions: Compound concentration 1000.0 nM.
Assay [3] deals with Mitogen-activated protein kinase 9 (Homo sapiens) (UniProt P45984). The conditions noted are these: Compound concentration 1000.0 nM.
Assay [4] has as its target Ribosomal protein S6 kinase alpha-2 (Homo sapiens, UniProt Q15349). As to conditions: Compound concentration 1000.0 nM.
Assay [5] addresses Non-receptor tyrosine-protein kinase TYK2 (Homo sapiens) (UniProt P29597). The conditions noted are these: Compound concentration 1000.0 nM.
Assay [6] concerns Receptor-type tyrosine-protein kinase FLT3 (Homo sapiens), P36888 [K663Q]. The conditions noted are these: Compound concentration 1000.0 nM.
For assay [7], the target named is T1, Serine/threonine-protein kinase MAK (Homo sapiens) (UniProt P20794).
T1 sequence (whole entry): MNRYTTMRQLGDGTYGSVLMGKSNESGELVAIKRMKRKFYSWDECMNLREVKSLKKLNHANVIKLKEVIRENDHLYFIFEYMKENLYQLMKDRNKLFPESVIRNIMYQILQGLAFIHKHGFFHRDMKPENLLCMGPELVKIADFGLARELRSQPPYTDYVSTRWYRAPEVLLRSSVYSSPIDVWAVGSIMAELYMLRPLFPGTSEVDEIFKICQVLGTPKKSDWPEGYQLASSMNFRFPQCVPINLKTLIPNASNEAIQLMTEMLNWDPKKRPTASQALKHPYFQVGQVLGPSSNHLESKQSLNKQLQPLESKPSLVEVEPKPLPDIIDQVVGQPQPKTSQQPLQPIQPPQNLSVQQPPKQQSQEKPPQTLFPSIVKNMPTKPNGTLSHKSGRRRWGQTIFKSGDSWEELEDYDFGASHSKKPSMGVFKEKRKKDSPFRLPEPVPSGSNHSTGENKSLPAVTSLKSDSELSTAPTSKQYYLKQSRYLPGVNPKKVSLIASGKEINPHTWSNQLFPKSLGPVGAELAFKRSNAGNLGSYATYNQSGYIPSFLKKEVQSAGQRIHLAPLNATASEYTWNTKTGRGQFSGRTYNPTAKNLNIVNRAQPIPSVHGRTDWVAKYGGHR
As to conditions: Compound concentration 1000.0 nM.

In assay [8] the target is Mast/stem cell growth factor receptor Kit (Homo sapiens) (UniProt P10721). As to conditions: Compound concentration 1000.0 nM.
Assay [9] deals with Calcium/calmodulin-dependent protein kinase type II subunit beta (Homo sapiens) (UniProt Q13554). The conditions noted are these: Compound concentration 1000.0 nM.
For assay [10], the target named is T2, Dual specificity protein kinase TTK (Homo sapiens) (UniProt P33981).
T2 sequence (whole entry): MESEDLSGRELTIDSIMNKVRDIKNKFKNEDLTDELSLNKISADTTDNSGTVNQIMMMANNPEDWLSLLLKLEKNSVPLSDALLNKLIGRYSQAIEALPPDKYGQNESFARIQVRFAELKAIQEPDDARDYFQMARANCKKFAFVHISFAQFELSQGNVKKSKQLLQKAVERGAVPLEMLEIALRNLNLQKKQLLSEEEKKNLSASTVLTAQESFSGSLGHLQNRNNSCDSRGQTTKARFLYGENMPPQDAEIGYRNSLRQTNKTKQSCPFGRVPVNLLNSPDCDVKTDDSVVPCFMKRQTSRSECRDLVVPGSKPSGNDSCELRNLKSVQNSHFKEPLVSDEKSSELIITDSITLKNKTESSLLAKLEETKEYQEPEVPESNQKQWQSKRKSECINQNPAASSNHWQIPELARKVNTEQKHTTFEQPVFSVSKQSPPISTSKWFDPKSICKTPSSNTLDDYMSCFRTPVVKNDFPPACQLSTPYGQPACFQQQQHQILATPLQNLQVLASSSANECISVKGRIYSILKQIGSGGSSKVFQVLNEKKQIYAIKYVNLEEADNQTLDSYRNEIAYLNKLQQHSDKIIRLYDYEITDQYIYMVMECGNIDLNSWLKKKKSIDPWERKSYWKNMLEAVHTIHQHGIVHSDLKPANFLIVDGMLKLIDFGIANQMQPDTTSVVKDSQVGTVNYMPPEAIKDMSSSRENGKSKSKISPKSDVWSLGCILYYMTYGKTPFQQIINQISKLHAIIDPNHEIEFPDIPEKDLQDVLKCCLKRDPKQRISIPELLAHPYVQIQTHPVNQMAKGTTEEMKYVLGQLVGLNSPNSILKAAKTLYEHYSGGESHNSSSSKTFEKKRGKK
As to conditions: Compound concentration 1000.0 nM.

Assay [11] has as its target Beta-1 adrenergic receptor (Homo sapiens) (UniProt P08588). The conditions noted are these: Compound concentration 10.0 uM.
The target of assay [12] is Serine/threonine-protein kinase SIK2 (Homo sapiens) (UniProt Q9H0K1). As to conditions: Compound concentration 1000.0 nM.
For assay [13], the target named is T3, Inhibitor of nuclear factor kappa-B kinase subunit alpha (Homo sapiens) (UniProt O15111).
T3 sequence (whole entry): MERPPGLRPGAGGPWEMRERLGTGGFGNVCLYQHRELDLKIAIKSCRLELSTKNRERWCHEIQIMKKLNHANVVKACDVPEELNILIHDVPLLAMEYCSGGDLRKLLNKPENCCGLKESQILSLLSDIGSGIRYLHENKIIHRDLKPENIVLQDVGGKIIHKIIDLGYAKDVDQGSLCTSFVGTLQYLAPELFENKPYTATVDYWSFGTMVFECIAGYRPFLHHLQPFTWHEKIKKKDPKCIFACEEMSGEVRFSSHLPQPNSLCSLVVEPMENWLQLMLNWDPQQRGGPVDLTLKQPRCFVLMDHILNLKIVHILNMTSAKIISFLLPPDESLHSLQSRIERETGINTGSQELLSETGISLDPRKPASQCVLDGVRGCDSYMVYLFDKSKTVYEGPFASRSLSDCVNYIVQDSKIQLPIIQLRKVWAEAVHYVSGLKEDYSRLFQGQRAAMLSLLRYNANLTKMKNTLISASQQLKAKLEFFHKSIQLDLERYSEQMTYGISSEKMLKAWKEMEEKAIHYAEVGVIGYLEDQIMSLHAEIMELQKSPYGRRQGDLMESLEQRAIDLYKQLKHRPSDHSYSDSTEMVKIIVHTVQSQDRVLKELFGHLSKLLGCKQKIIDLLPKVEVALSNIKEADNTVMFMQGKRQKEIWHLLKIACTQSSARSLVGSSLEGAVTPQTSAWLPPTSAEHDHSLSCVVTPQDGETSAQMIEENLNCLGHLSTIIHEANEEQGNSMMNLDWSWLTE
The conditions noted are these: Compound concentration 1000.0 nM.

The target in assay [14] is Focal adhesion kinase 1 (Homo sapiens) (UniProt Q05397). The conditions noted are these: Compound concentration 1000.0 nM.

A word on the inhibition: it is the change of the read-out against control, counted positive when it falls.

Sequence of Serine/threonine-protein kinase MARK1 (Homo sapiens) (Q9P0L2 whole entry, looked up): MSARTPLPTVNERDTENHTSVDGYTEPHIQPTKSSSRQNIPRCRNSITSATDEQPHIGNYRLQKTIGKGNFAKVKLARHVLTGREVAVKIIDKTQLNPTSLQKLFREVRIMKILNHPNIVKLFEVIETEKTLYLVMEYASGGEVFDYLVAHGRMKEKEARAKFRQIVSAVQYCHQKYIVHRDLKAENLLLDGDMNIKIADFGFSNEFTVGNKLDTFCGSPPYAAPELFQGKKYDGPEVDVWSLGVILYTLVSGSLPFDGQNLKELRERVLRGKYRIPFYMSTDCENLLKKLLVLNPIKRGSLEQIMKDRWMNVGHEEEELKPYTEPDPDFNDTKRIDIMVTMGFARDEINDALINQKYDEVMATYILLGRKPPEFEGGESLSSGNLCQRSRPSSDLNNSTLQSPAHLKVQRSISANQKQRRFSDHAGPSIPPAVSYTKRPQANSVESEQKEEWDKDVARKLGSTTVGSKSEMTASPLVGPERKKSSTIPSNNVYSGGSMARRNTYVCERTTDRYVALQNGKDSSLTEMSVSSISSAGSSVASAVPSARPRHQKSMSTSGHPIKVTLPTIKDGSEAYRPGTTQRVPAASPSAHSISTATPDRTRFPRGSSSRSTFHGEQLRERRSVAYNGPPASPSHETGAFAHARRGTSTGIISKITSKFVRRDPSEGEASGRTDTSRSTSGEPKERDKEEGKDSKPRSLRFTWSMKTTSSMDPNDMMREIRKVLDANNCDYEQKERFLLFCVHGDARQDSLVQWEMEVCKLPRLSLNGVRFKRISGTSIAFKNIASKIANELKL
Sequence of Atypical kinase COQ8B, mitochondrial (Homo sapiens) (Q96D53 whole entry): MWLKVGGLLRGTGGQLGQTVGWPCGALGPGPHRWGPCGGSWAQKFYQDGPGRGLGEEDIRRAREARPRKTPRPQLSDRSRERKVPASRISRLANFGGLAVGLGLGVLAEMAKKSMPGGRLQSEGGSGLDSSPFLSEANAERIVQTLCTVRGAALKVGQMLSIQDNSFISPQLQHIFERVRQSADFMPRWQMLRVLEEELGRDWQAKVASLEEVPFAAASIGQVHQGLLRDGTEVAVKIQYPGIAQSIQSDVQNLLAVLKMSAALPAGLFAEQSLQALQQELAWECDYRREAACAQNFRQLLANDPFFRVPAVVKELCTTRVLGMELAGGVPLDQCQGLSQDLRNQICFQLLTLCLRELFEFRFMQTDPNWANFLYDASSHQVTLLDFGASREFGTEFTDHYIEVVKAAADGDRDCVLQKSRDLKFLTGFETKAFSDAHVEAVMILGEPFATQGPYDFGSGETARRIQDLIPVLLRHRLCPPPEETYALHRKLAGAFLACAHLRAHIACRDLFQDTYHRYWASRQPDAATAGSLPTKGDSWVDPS
Sequence of Focal adhesion kinase 1 (Homo sapiens) (Q05397 2-1052 limits assumed): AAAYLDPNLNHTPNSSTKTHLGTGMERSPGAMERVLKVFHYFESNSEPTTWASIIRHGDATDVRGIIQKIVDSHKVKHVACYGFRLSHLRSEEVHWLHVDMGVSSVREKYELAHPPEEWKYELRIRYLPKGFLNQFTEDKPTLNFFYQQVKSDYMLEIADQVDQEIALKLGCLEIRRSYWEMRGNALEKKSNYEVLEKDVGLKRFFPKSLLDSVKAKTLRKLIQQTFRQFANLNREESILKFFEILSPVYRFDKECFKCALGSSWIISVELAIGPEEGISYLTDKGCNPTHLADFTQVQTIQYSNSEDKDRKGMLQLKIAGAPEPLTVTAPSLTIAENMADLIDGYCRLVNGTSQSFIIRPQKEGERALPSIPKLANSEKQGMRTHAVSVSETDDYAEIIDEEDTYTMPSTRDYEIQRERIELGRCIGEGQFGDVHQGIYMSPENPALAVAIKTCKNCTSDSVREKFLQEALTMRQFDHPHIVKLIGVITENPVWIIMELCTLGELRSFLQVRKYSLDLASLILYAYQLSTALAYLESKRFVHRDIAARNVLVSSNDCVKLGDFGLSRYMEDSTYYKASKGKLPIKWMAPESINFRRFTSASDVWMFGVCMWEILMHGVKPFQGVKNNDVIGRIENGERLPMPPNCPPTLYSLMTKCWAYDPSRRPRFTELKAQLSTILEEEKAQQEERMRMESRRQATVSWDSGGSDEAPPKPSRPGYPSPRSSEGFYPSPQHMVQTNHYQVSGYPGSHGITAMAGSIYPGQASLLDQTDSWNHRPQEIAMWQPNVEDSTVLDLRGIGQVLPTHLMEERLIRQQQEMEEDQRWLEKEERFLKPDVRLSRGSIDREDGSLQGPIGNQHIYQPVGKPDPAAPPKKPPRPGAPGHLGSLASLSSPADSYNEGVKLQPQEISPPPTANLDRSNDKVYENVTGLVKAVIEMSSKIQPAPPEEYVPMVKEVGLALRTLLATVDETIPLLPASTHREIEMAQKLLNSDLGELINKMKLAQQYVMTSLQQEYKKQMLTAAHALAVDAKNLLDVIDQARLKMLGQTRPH
Sequence of Serine/threonine-protein kinase SIK2 (Homo sapiens) (Q9H0K1 whole entry, looked up): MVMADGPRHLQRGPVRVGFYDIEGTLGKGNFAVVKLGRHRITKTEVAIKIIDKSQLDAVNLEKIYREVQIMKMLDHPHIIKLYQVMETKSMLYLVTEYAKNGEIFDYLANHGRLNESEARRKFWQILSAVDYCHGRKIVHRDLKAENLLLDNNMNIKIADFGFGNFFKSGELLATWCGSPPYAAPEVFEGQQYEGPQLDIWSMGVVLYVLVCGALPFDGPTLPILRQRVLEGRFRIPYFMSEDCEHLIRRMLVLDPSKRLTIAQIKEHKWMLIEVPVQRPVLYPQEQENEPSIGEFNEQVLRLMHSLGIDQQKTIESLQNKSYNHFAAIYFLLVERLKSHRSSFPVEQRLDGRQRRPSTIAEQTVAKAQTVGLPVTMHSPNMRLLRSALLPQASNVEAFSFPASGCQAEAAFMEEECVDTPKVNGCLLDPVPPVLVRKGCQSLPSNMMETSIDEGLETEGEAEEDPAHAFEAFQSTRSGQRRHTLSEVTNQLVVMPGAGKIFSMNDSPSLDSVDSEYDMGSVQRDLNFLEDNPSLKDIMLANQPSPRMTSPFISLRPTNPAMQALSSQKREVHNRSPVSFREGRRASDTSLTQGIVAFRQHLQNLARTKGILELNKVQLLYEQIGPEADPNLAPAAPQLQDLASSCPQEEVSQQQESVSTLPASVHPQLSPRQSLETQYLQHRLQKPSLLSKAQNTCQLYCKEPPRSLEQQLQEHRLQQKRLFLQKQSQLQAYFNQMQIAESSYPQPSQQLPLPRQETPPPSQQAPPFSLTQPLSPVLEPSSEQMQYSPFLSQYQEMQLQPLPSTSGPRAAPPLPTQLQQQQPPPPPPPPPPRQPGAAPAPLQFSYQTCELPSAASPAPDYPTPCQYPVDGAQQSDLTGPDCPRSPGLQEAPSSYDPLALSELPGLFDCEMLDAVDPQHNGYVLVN
Sequence of Mitogen-activated protein kinase 9 (Homo sapiens) (P45984 whole entry, looked up): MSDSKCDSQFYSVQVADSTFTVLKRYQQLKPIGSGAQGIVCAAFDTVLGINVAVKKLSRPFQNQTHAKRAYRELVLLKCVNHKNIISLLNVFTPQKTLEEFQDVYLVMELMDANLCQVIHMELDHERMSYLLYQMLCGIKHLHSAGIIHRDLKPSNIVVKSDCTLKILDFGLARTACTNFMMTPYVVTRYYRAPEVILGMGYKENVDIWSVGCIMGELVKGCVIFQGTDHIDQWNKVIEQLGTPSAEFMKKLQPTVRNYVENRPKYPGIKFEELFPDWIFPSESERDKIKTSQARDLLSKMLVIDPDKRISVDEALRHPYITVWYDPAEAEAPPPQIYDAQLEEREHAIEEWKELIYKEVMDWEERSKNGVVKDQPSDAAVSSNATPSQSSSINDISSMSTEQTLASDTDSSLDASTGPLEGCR
Sequence of Beta-1 adrenergic receptor (Homo sapiens) (P08588 whole entry, looked up): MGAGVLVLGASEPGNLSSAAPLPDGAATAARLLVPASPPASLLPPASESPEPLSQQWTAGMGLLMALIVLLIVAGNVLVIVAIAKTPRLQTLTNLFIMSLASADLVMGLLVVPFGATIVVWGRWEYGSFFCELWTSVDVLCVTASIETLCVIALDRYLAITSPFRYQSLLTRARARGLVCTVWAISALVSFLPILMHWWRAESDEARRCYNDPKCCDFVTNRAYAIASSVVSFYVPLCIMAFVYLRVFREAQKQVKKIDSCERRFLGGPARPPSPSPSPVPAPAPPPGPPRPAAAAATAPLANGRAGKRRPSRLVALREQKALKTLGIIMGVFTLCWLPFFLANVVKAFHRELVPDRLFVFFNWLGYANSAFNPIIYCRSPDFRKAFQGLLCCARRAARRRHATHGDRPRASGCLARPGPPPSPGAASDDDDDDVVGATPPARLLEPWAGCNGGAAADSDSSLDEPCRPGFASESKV
Sequence of Calcium/calmodulin-dependent protein kinase type II subunit beta (Homo sapiens) (Q13554 whole entry): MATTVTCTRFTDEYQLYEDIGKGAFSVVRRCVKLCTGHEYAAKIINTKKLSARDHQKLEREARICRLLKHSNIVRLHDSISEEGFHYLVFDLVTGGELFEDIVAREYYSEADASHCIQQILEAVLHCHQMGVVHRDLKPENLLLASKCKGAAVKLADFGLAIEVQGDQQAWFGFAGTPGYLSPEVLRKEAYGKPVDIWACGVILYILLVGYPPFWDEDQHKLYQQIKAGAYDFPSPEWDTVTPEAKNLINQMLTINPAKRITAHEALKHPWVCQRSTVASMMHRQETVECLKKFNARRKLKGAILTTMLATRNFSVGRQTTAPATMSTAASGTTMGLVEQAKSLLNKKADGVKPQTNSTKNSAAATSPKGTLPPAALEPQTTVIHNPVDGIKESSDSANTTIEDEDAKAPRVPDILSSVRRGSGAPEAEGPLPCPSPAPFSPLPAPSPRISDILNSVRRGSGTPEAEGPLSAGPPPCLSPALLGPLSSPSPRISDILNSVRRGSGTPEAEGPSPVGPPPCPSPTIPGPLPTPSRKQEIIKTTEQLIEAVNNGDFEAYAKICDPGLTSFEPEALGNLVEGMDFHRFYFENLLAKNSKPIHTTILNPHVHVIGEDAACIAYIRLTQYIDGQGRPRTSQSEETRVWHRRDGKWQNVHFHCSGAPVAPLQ

For `CC1=C(C#N)C(c2ccc3c(c2)c(NC(=O)c2ccccc2C)nn3C)C(C#N)=C(C)N1` [BAY-974], the residual activity in [1] was 100%; in [2], 100%; in assay [3] it was 73%; in assay [4] it was 83%; in assay [5], 82%; in assay [6], 100%. For the same compound, the residual activity is 100% in [7]; 100% in [8]; 86% in assay [9]; 82% in [10]; 93% in assay [12]; 77% in [13]. For the same compound, in [14], the residual activity is 94%. The inhibition in [11] was -7.79%.

As for `CCc1ccccc1C(=O)Nc1n[nH]c2c(C)c(F)c(C3C(C#N)=C(C)N(C)C(C)=C3C#N)cc12` [BAY-3827], the residual activity is 96% in [1]; 36% in assay [2]; 67% in assay [3]; 0% in assay [4]; 100% in [5]; 13% in assay [6]. Moreover, the residual activity is 100% in [7]; 84% in assay [8]; 73% in assay [9]; 82% in assay [10]; 69% in assay [12]; 87% in assay [13]. Besides, the residual activity in [14] was 82%. Moreover, the inhibition in assay [11] was 1.59%.
